Test results published in patent US11684595B2, “Characterization of the oral microbiome for the non-invasive diagnosis of Barrett's esophagus” (The Trustees of Columbia University in the City of New York, priority 2017, dated 2023).

Experiments:
Format in all cases: in vivo, human
[1] = tested on: culturable bacteria in the esophagus; assay: Culture of esophageal brushings on TSA plates with 5% sheep blood after two weeks of mouth rinse (randomized trial)
Description: A randomized controlled trial of chlorhexidine antimicrobial mouth rinse study was conducted in patients scheduled to undergo upper endoscopy. It is postulated that the microbiome may play a role in the development of various esophageal and other upper gastrointestinal diseases such as Barrett's esophagus and esophageal cancer. The microbiome of the upper gastrointestinal tract is heavily influenced by migration of bacteria from the mouth via swallowed secretions. Therefore, it stands to reason that altering the oral microbiome can directly impact the microbiome of the esophagus and gastric cardia. Chlorhexidine mouth rinse (i.e. an antiseptic oral rinse) effectively alters levels of many bacteria in the mouth, including anaerobes and species that are not easily cultured, and also has anti-inflammatory effects. A randomized open-label pilot study was performed to test this hypothesis that use of an antimicrobial mouth rinse alters the microbiome of the lower esophagus and gastric cardia.
(§1) The enrolled subjects were those already scheduled for upper endoscopy for clinical indications. • Subjects were randomized 1:1 to receive 0.12% chlorhexidine mouth rinse or no treatment. • Antimicrobial mouth rinse was used twice daily for two weeks leading up to the endoscopy. The two-week time frame was chosen as a practical end-point for the clinical study, and treatment can be for any desired period of time, i.e. to obtain the desired microbiome mix. • Baseline sample collection: Saliva, oral swab. • Samples collected at follow-up (day of endoscopy): Saliva, oral swab, esophageal brushings, gastric cardia brushings.
(§2) Patients scheduled to undergo upper endoscopy were randomized to treatment with chlorhexidine 0.12% mouth rinse or no mouth rinse for two weeks leading up to the endoscopy. Oral samples (swabs and saliva) were collected at baseline and after two weeks. During the endoscopy, brushings of the esophagus and of the gastric cardia were collected to sample the microbiome.
An interim analysis was performed on the esophageal brushings collected during upper endoscopy. Approximately one half of the bacteria in the esophagus can be readily cultured. Thus, it was hypothesized that a change in the amount of culturable bacteria (either increased or decreased) would reflect a change in the proportion of culturable:non-culturable bacteria in the esophagus. Samples from the first 14 subjects (8 controls not using mouth rinse, 6 subjects using chlorhexidine mouth rinse) were collected, and solutions were prepared from these samples. The samples were then plated onto trypticase soy agar (TSA) plates with 5% sheep blood and incubated for 18 hours at 37° C.

salivary microbiome = assay: 16S rRNA gene sequencing of saliva, randomized trial of antimicrobial mouth rinse; details: LEfSe
From the text: as §1, §2
16 S rRNA gene sequencing was performed on all of the biosamples. The V3-V4 hypervariable region for all samples was sequenced using the Illumina HiSeq 2500 in Rapid Mode with 2×300 bp read length (Illumina, San Diego, Calif.). The Greengenes reference database was used. Taxonomic units were clustered at 97% sequence similarity using USEARCH and taxonomic assignments were made using mothur. […]

esophageal microbiome = assay: 16S rRNA gene sequencing of esophageal brushings, randomized trial of antimicrobial mouth rinse
From the text: as §1, §2
16 S rRNA gene sequencing was performed on all of the biosamples. The V3-V4 hypervariable region for all samples was sequenced using the Illumina HiSeq 2500 in Rapid Mode with 2×300 bp read length (Illumina, San Diego, Calif.). The Greengenes reference database was used. Taxonomic units were clustered at 97% sequence similarity using USEARCH and taxonomic assignments were made using mothur. A phylogenetic tree of the contigs was generated with FastTree version 2.1.7.
In order to determine whether chlorhexidine alters the esophageal microbiome, a comparison of the microbiome composition from esophageal samples was performed, comparing the treatment and no treatment arms.

[2] = 0.12% mouth rinse twice daily for two weeks before endoscopy, n = 6, plated on TSA, 18 hours at 37° C.

[H]/N=C(\N/C(=N/[H])NCCCCCCNC(=N)NC(=N)Nc1ccc(Cl)cc1)Nc1ccc(Cl)cc1 [Chlorhexidine, chlorhexidine]
Mean (SE) CFU/mL from esophageal brushings collected at endoscopy [1, 2]: 56,433 (42,654) CFU/mL | Mean (SE) number of colonies from esophageal brushings collected at endoscopy [1, 2]: 282 (213) | numbers of culturable bacteria (colonies and CFU/mL) in the esophagus compared to no chlorhexidine rinse ([1]; FIGS. 3A-B): increased numbers of culturable bacteria | increase in growth of culturable bacteria compared to the arm not receiving mouth rinse ([1]; esophageal brushings, 6 subjects using rinse vs 8 controls): 68% | taxonomic changes in salivary microbiome after treatment compared to baseline (salivary microbiome; 2 weeks' treatment, FIG. 4A): Numerous taxa were altered | differences in salivary microbiome at follow-up versus no treatment in phylum Firmicutes and species Haemophilus parainfluenzae (salivary microbiome; follow-up, FIG. 4B): large differences were seen | beta diversity analysis of esophageal microbiome, clustering by treatment group (esophageal microbiome; FIG. 5): significant clustering by treatment group | esophageal microbiome composition compared to patients receiving no treatment (esophageal microbiome; FIGS. 5-6): markedly distinct | relative abundance of Haemophilus in the esophageal microbiome (esophageal microbiome; vs no treatment arm, FIG. 6): significantly decreased | relative abundance of Streptococcus in the esophageal microbiome (esophageal microbiome; vs no treatment arm, FIG. 6): increased
